# Assays:
# rat NaP2b (SLC34A2) = target: T1, rat NaP2b (SLC34A2) (Rattus norvegicus, UniProt Q9JJ09); test: Inhibition of NaP2b-mediated Pi (33P) uptake in transfected HEK293 cells, rat NaP2b; assay type: cell-based; conditions: HEK293 cells transfected with rat NaP2b, 100 uM phosphate, 0.1 nM to 30 uM, read-out: pIC50 range for rat Nap2b (converted)
# T1 construct: host or cells: HEK293
# T1 sequence (Q9JJ09 1-695): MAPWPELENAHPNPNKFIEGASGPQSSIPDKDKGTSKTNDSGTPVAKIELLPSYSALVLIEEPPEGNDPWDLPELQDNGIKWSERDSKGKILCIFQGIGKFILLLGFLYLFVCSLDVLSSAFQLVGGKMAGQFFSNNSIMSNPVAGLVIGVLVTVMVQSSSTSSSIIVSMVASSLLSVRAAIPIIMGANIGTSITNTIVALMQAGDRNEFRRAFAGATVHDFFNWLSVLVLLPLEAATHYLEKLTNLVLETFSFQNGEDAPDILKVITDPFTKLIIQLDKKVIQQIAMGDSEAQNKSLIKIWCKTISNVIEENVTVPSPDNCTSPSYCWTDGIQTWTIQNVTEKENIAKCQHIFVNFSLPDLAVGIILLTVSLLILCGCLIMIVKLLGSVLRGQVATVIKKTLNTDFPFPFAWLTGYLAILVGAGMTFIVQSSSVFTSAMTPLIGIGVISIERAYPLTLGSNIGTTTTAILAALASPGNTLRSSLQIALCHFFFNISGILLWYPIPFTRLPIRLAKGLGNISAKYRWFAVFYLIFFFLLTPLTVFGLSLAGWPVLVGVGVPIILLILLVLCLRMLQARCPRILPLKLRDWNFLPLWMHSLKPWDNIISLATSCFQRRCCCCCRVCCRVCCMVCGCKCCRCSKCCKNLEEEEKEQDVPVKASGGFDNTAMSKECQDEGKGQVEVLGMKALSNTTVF
# Outline: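 HEK293 cells transiently transfected with rat NaP2b; 33P-phosphate uptake measured in sodium or choline buffer (100 uM KH2PO4, PiT-silencing agent, pH 7.4) with compound at twelve concentrations, 0.1 nM–30 uM, in duplicate. Lysed cells counted by scintillation; pIC50 derived from concentration-response.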
# [1] = Fecal recovery of orally administered compounds; assay type: in vivo; conditions: rat; oral gavage; feces collected until 48 hr after dosing
# Text: In this respect, it is understood that a recovered compound can include the sum of the parent compound and its metabolites derived from the parent compound, e.g., by means of hydrolysis, conjugation, reduction, oxidation, N-alkylation, glucuronidation, acetylation, methylation, sulfation, phosphorylation, or any other modification that adds atoms to or removes atoms from the parent compound, wherein the metabolites are generated via the action of any enzyme or exposure to any physiological environment including, pH, temperature, pressure, or interactions with foodstuffs as they exist in the digestive milieu. Measurement of fecal recovery of compound and metabolites can be carried out using standard methodology. For example, compound can be administered orally at a suitable dose (e.g., 10 mg/kg) and feces are then collected at predetermined times after dosing (e.g., 24 hours, 48 hours, 72 hours). Parent compound and metabolites can be extracted with organic solvent and analyzed quantitatively using mass spectrometry. A mass balance analysis of the parent compound and metabolites (including, parent=M, metabolite 1 [M+16], and metabolite 2 [M+32]) can be used to determine the percent recovery in the feces.
# Quantitative determination of test compound level in feces after oral gavage was performed using the same set of animals used to determine test compound concentration in plasma (Example 352). The animals were kept in metabolic cages and feces were collected from the time of dosing until 48 hr after dosing. Upon collection, feces were dried by lyophilization and ground to a visually homogenous powder. Duplicate samples of ground feces from each individual animal were weighed out and extracted using organic solvent. Extracted samples were then diluted into mobile phase and test compound levels were quantitatively determined by LC-MS/MS analysis as described in Example 352 except that the standard curve was prepared in a feces matrix. Extraction conditions were not optimized for individual compounds, and thus may represent a minimal level of recovery.
IC50 (rat NaP2b (SLC34A2)) [nM],% recovered in feces [1],Structure (SMILES)
1000 to 7940,20-80%,"O=C(O)CCSCc1cccc(C(=O)Nc2ccc(N3CCCCC3)cc2-c2cc(C(=O)NCc3cccc(C(F)(F)F)c3)ccn2)c1 [Example 1.1, 3-(3-((2-(4-((3-(trifluoromethyl)benzyl)carbamoyl)pyridin-2-yl)-4-(piperidin-1-yl)phenyl)carbamoyl)-benzylthio)propanoic acid]"
< 1000,20-80%,"CCN(CC)c1ccc(NC(=O)c2cccc(C(=O)N(C)CCN3CCOCC3)c2)c(-c2cc(C(=O)NCc3cccc(C(F)(F)F)c3)ccn2)c1 [Example 25, N1-(4-(Diethylamino)-2-(4-((3-(trifluoromethyl)benzyl)carbamoyl)pyridin-2-yl)phenyl)-N3-methyl-N3-(2-morpholinoethyl)isophthalamide]"

# From US9301951B2 (Ardelyx, Inc., priority 2010, dated 2016)
